Experimental data: paper PMC11942279, “Multiple Inhibitory Mechanisms of DS16570511 Targeting Mitochondrial Calcium Uptake: Insights from Biochemical Analysis of Rat Liver Mitochondria” (International Journal of Molecular Sciences, 2025)

Legend:
[1] = target: T1, respiratory chain complex II (Rattus norvegicus, UniProt P21913+Q641Z9+Q6PCT8+Q920L2); experiment: Mitochondrial oxygen consumption with succinate as respiratory substrate; type: biochemical
T1 construct: from tissue; host or cells: rat liver mitochondria (male Wistar rats)
T1 sequence (Q920L2 35-656): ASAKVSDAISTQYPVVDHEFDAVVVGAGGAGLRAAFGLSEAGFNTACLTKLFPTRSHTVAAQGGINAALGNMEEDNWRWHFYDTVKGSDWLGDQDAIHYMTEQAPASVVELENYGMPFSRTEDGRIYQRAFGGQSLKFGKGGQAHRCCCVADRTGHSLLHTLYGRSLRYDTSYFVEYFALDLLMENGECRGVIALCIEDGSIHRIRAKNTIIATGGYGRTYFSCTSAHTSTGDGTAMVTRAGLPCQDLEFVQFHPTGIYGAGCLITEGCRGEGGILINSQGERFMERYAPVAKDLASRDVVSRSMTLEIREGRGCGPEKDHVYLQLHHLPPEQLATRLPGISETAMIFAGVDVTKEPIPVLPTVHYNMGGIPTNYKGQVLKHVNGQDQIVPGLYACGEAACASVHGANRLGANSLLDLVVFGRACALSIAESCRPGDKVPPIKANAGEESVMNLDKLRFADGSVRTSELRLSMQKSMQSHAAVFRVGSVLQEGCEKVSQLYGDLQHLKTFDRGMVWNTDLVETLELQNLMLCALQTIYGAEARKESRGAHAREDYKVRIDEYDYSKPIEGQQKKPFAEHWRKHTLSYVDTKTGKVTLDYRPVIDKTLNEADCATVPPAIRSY
T1 sequence (P21913 31-282): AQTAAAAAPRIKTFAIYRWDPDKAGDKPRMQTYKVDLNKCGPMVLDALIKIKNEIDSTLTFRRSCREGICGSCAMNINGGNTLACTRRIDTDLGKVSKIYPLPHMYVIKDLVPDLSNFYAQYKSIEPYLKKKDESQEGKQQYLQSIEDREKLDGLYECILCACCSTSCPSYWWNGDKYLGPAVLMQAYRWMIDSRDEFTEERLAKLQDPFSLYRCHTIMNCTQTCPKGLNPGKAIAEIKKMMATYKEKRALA
T1 sequence (Q641Z9 30-169 limits assumed): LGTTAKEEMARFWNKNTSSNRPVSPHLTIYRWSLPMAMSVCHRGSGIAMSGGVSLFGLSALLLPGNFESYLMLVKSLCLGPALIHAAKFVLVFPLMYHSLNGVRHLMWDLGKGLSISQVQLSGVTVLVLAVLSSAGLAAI
T1 sequence (Q6PCT8 57-159): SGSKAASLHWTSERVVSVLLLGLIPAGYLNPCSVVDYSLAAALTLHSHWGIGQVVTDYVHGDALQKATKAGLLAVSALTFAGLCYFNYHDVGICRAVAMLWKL
Experimental: Figure 5 Effect of DS16570511 on oxygen consumption in the presence of succinate. (a) Mitochondria (Mt), 10 mM succinate, and 0.1 µM SF6847 were added to Pi medium containing the indicated concentrations of DS16570511 or antimycin at the time points marked by arrows. Changes in dissolved oxygen concentration in the reaction medium were measured, and representative traces are shown. “natomsO” denotes the nanomoles of oxygen atoms in the reaction medium. (b) The degree of inhibition was calculated from the rate of oxygen consumption over a 3 min period, measured 30 s after SF6847 addition. […] Data are presented as the mean ± standard deviation of independent experiments (n = 3).
(§1) Livers were harvested from 6- to 18-week-old male Wistar rats (Japan SLC, Shizuoka, Japan), and mitochondria were isolated as previously described. All animal experiments complied with the University of Tokushima Guidelines for the Care and Use of Laboratory Animals (approval number: T28-29). Mitochondrial protein concentrations were measured using the Biuret method with bovine serum albumin as the standard in the presence of 1% SDS.
When electrons were supplied via respiratory chain complex I, 5 mM glutamate and 5 mM malate were used as respiratory substrates. For electrons supplied via respiratory chain complex II, 0.68 µg/mL rotenone was added beforehand to inhibit electron transfer from endogenous respiratory chain complex I, and 10 mM succinate was used as the respiratory substrate.

[2] = system: membrane potential in rat liver mitochondria; experiment: Measurement of mitochondrial membrane potential formation (DiSC3(5)); type: biochemical; conditions: 10 mM succinate, first 5 s after succinate addition, read-out: IC50 for inhibition of membrane potential formation
Experimental: Figure 3 Effect of DS16570511 on membrane potential in rat liver mitochondria. (a) Rat liver mitochondria were incubated in Pi medium containing the indicated concentrations of DS16570511 or antimycin. At the time points indicated by arrows, 10 mM succinate was added as a respiratory substrate, and membrane potential was measured using 3 µM DiSC3(5) as a probe. Representative traces are shown. (b) The degree of inhibition was calculated from the rate of membrane potential formation during the first 5 s after succinate addition, with 0% inhibition in the absence of DS16570511 (none) and 100% inhibition in the presence of SF6847. […]
(§2) Livers were harvested from 6- to 18-week-old male Wistar rats (Japan SLC, Shizuoka, Japan), and mitochondria were isolated as previously described. […] Mitochondrial protein concentrations were measured using the Biuret method with bovine serum albumin as the standard in the presence of 1% SDS.
DiSC3(5) (3 µM) was used as a fluorescent probe to measure mitochondrial membrane potential in 2.2 mL of Pi medium. Fluorescence intensity was measured using an F-2700 spectrofluorometer (HITACHI, Tokyo, Japan) with excitation and emission wavelengths of 643 and 666 nm, respectively. Fluorescence intensity was recorded after adding 10 mM succinate to Pi medium containing 2.5 µM CsA, 0.68 µg/mL rotenone, 0.42 mg protein/mL mitochondria, and DS16570511. […]

[3] = system: mitochondrial Ca2+ uptake in rat liver mitochondria; experiment: Mitochondrial Ca2+ uptake assay (succinate-energized, Fluo-5); type: biochemical; conditions: 10 mM succinate, Ca2+ uptake rate during first 30 s after adding mitochondria, read-out: IC50 for inhibition of mitochondrial Ca2+ uptake
Experimental: Figure 2 Effect of DS16570511 on mitochondrial Ca^2+ uptake activity in rat liver mitochondria. (a) Mitochondrial Ca^2+ uptake activity was measured in isolated rat liver mitochondria. Mitochondria were added to Pi medium containing the indicated concentrations of DS16570511 or ruthenium 360, and changes in extramitochondrial Ca^2+ concentration over time were analyzed based on Fluo-5 fluorescence intensity. Representative traces are shown. (b) The degree of inhibition was calculated from the Ca^2+ uptake rate during the first 30 s after adding mitochondria. Data are expressed as 0% inhibition in the absence of DS16570511 (none) and 100% inhibition in the presence of ruthenium 360. […]
as §2
Fluo-5 (1 µM) was used as a Ca^2+-sensitive fluorescence indicator in 1 mL of Pi medium (250 mM sucrose, 10 mM Tris-MOPS, 10 µM EGTA-Tris, 0.5 mg/mL bovine serum albumin, and 10 mM KPi, pH 7.4). Fluorescence intensity was measured using an F-2700 spectrofluorometer (HITACHI, Tokyo, Japan) with excitation and emission wavelengths of 494 and 516, respectively. […]

rat liver mitochondria = experiment: Comparison with uncouplers on mitochondrial oxygen consumption; type: biochemical; conditions: 10 mM succinate, DS16570511 50 or 200 µM
Experimental: Figure 4 Comparison of the effects of DS16570511 and uncouplers on mitochondrial oxygen consumption. Mitochondria (Mt), 10 mM succinate (Succ), and each compound (50 or 200 µM DS16570511 [DS], SF6847 [SF], or alamethicin [Ala]) were added to Pi medium at the time points indicated by arrows. Changes in the concentration of dissolved oxygen in the reaction medium were measured using an oxygen electrode. Representative traces are shown. “natomsO” denotes the nanomoles of oxygen atoms in the reaction medium.
The rate of mitochondrial oxygen consumption was measured using a Clark-type oxygen electrode (YSI5331, Yellow Springs Instrument Co., Ltd., Yellow Springs, OH, USA) at 25 °C in 2.2 mL of Pi medium preincubated with 2.5 µM CsA. When electrons were supplied via respiratory chain complex I, 5 mM glutamate and 5 mM malate were used as respiratory substrates. For electrons supplied via respiratory chain complex II, 0.68 µg/mL rotenone was added beforehand to inhibit electron transfer from endogenous respiratory chain complex I, and 10 mM succinate was used as the respiratory substrate. The degree of inhibition and IC50 values of DS16570511 were calculated based on the oxygen consumption rate over a 3 min period, starting 30 s after the addition of SF6847.

[4] = system: respiratory chain complexes I–III–IV; experiment: Mitochondrial oxygen consumption with glutamate and malate as respiratory substrates; type: biochemical; conditions: rat liver mitochondria, 5 mM glutamate, 5 mM malate, 0.1 µM SF6847; read-out: IC50 for inhibition of oxygen consumption (glutamate and malate; respiratory chain complexes I–III–IV)
Experimental: Figure 6 Effect of DS16570511 on oxygen consumption in the presence of glutamate and malate. (a) Mitochondria (Mt), 5 mM glutamate, 5 mM malate, and 0.1 µM SF6847 were added to Pi medium containing the indicated concentrations of DS16570511 or antimycin at the time points marked by arrows. Changes in dissolved oxygen concentration in the reaction medium were measured, and representative traces are shown. “natomsO” denotes the nanomoles of oxygen atoms in the reaction medium. (b) The degree of inhibition was calculated from the rate of oxygen consumption over a 3 min period, measured 30 s after SF6847 addition. Results are expressed as 0% inhibition in the absence of DS16570511 (none) and 100% inhibition with antimycin. Data are presented as the mean ± standard deviation of independent experiments (n = 3).
as §2
The rate of mitochondrial oxygen consumption was measured using a Clark-type oxygen electrode (YSI5331, Yellow Springs Instrument Co., Ltd., Yellow Springs, OH, USA) at 25 °C in 2.2 mL of Pi medium preincubated with 2.5 µM CsA. […]

FoF1-ATPase/ANT = experiment: Mitochondrial FoF1-ATPase activity (pH electrode); type: biochemical; conditions: rat liver mitochondria, 1 mM ATP, antimycin, pH change over 3 min; read-out: IC50 for inhibition of FoF1-ATPase/ANT activity (pH decrease)
Experimental: Figure 7 Effect of DS16570511 on mitochondrial FoF1-ATPase activity. (a) Schematic representation of mitochondrial FoF1-ATPase activity: ATP enters the matrix via ANT and is hydrolyzed to ADP by FoF1-ATPase, driving proton extrusion from the matrix and decreasing the reaction medium pH. […] (b) Mitochondria were added to the incubation medium containing the indicated concentrations of DS16570511 or oligomycin, and pH changes in the medium were measured using a pH electrode. Representative traces are shown. (c) Inhibition was calculated from the pH change over a 3 min period, starting 30 s after adding mitochondria. Results are expressed as 0% inhibition in the absence of DS16570511 and 100% inhibition with oligomycin. Data are presented as the mean ± standard deviation of independent experiments (n = 3).
as §1
Mitochondrial FoF1-ATPase activity was measured using a modified version of the classical pH electrode-based method. […]

Ca2+ uptake = conditions: read-out: IC50 for inhibition of Ca2+ uptake; cited from earlier work
mice = system: mice; set-up: method as in PMID 32126877, PMID 38779706; conditions: cited from earlier work
[5] = rat liver mitochondria, succinate

Compound: Cc1onc(-c2c(Cl)cccc2Cl)c1CNc1cccc(C(=O)c2cn(CCCC(=O)O)c3ccccc23)c1 [DS16570511]
- IC50 [1]: 9.5 µM
- Inhibition of oxygen consumption at a single concentration (in words) ([1]; 200 µM, rat liver mitochondria, succinate, SF6847): inhibited oxygen consumption to the same extent as antimycin
- IC50 [2]: 10.8 µM
- IC50 [3]: 9.2 µM
- Effect on mitochondrial oxygen consumption (uncoupling test, in words) (rat liver mitochondria): reduced the rate of oxygen consumption
- IC50 [4]: 40.9 µM
- IC50 (FoF1-ATPase/ANT): 97.2 µM

Compound: CCOC(=O)CCCn1cc(C(=O)c2cccc(NCc3c(-c4c(Cl)cccc4Cl)noc3C)c2)c2ccccc21 [Compound 2]
- Inhibitory activity on oxygen consumption via respiratory chain complex II (in words) [1, 5]: completely lacked inhibitory activity

Compound: CC(C)(C)c1cc(C=C(C#N)C#N)cc(C(C)(C)C)c1O [SF6847]
- Effect on mitochondrial oxygen consumption (uncoupling test, in words) (rat liver mitochondria): markedly increased oxygen consumption

Compound: alamethicin
- Effect on mitochondrial oxygen consumption (uncoupling test, in words) (rat liver mitochondria): markedly increased oxygen consumption

Compound: CCOC(=O)CCCn1cc(C(=O)c2cccc(/N=C/c3c(-c4c(Cl)cccc4Cl)noc3C)c2)c2ccccc21 [Compound 4]
- Inhibitory activity on oxygen consumption via respiratory chain complex II (in words) [1, 5]: completely lacked inhibitory activity

Compound: N.N.N.N.N.N.N.N.O=CO.O=CO.[O-2].[Ru+3].[Ru+4] [Ruthenium 360]
- IC50 (Ca2+ uptake): 0.000184 µM

Compound: Cc1onc(-c2c(Cl)cccc2Cl)c1/C=N/c1cccc(C(=O)c2cn(CCCC(=O)O)c3ccccc23)c1 [Compound 3]
- IC50 [1]: 52.7 µM

Compound: N.N.N.N.N.N.N.N.[Cl][Ru+3].[N-]=[Ru][Cl] [ruthenium 265]
- Adverse effect after intraperitoneal administration (mice): caused seizure-like movements
